Source: US8076485B2, “Methylphenidate derivatives and uses of them” (priority 2005, dated 2011)

Legend:
Assay type in all cases: cell-based, human
[1] = test system: TNFα; assay: TNFα release by PHA-stimulated PBL (ELISA); settings: Example 3, GR191 PBL, Cpd II 15 and 50 μg/ml, Dex 10 μM, 72 hours, FIG. 7
Experimental: After this incubation, PHA was added to give a final concentration of 5 μg/ml, and the cells were incubated for an additional 72 hours at 37° C., 5% CO2. All cultures were performed in triplicate. Cells were then removed by centrifugation at 1000 rpm for 10 minutes.
The TNFα ELISA was performed as described in Example 2 using matched pair antibodies from Pierce Endogen (2 μg/ml for the coating antibody and 250 ng/ml for the second antibody).

[2] = test system: IL-8; assay: IL-8 release by PHA-stimulated PBL (ELISA); settings: Example 4, GR-192 PBL; 15 μg/ml Cpd II, 10 μM Dex; PHA 2 μg/ml, 96 hours; FIG. 8
Experimental: Whole blood was drawn from GR-192, a normal human volunteer, and processed as described in Example 1 to give heat-inactivated serum and PBL. […] After this incubation, PHA was added to give a final concentration of 2 μg/ml, and the cells were incubated for an additional 96 hours at 37° C., 5% CO2. All cultures were performed in triplicate. Cells were then removed by centrifugation at 1000 rpm for 10 minutes, and the culture medium collected.
To perform the ELISA, matched pairs of antibodies against human IL-8 were purchased from Pierce Biotechnology and Biosource, respectively. ELISA strip well plates were coated with 2 μg/ml of antibody to IL-8 (in phosphate-buffered saline (PBS)) overnight at room temperature. The plates were then blocked using a 4% BSA solution in PBS for one hour, followed by the addition of 50 μl of experimental culture medium per well in duplicate. The plates were incubated at room temperature for one hour and then washed using 50 mM Tris pH 8.0 with 0.1% Tween 20. Then, solutions of 100 ng/ml biotinylated second antibody to IL-8 were made in blocking buffer, and 100 μl were added per well. The plates were incubated for 1 hour and washed again. […] OD was determined using microplate reader with a 450 nm filter.

[3] = test system: HUVECs; assay: HUVEC proliferation (Promega cell titer assay); settings: 48 hours; for Mean OD at 530 nm: HUVECs
Experimental: Passage 4 HUVECs, lot number 9713, in either EGM-2 plus 50 ng/ml vascular endothelial growth factor (VEGF) (obtained from Sigma) or in EGM-2 complete medium (containing 2% FCS, hydrocortisone, human fibroblast growth factor B, VEGF, recombinant insulin-like growth factor-1, ascorbate, human […], gentamycin and heparin) (obtained from Cambrex) were put into the wells of a 96-well tissue culture plate at 5,000 cells/well. The following additives were added to the cells: water (vehicle control); 5 μg/ml of the compound of formula II (Cpd II); 15 μg/ml Cpd II; or 30 μg/ml of Cpd II. After 48 hours of culture at 37° C. and 5% CO2, cell proliferation was evaluated by the Promega cell titer assay as described in Example 1, except that the plates were incubated for only 2 hours after addition of the Promega cell titer reagent.

[4] = test system: RAP-1; assay: RAP-1 activation pulldown assay in TRiPS cells; settings: 15 μg/ml
Experimental: Day 10 TRiPS cells, 1×10^6, were incubated with 15 μg/ml of the compound of formula II (Cpd II) for 1 hour at 37° C. Then, the cells were incubated with CD3/CD28 beads (1 μl per 100,000 cells) (obtained from Dynal) for 10 minutes at 37° C. The cells were then lysed with a mild buffer (supplied with Pierce EZ-Detect activation kit described below) to produce cell extracts. Protein concentrations of the resulting extracts were determined by bicinchoninic acid (BCA) assay (Pierce) and placed on ice for immediate use.
Pulldown assays were performed using Pierce EZ-Detect activation kits according to the manufacturer's instructions utilizing GST-RAF-1-RBD and GST-RalGDS-RBD for Ras and RAP-1 respectively. Briefly, 400 μg total protein from each extract was combined with recombinant protein and glutathione resin and incubated at 4° C. for one hour with gentle shaking The resin was then washed to remove unbound protein and the activated Ras and RAP-1 proteins were removed by boiling in the presence of SDS-PAGE loading dye containing reducing agent. Ras and RAP-1 western blots were performed to visualize the proteins using antibodies supplied with the kit. Densitometry of the X-ray films was done by scanning and computer analysis.

Structure (SMILES): COC(=O)C(c1ccc(-c2ccccc2)cc1)C1CCCCN1 (stereo not shown) [Cpd II]
- release of TNFα from PHA-stimulated PBL [1]: significantly inhibited the release of TNFα
- IL-8 release induced by PHA [2]: significantly inhibited IL-8 release
- number of cells detected in the wells ([3]; HUVECs, 5, 15, 30 μg/ml): reduced the number of cells detected in the wells in a dose-dependent manner
- Mean OD at 530 nm ([3]; EGM-2 + VEGF, 5 μg/ml, vehicle 0.224 ± 0.011): 0.189 ± 0.014
- Mean OD at 530 nm ([3]; EGM-2 + VEGF, 15 μg/ml, vehicle 0.224 ± 0.011): 0.132 ± 0.022
- Mean OD at 530 nm ([3]; EGM-2 + VEGF, 30 μg/ml, vehicle 0.224 ± 0.011): 0.046 ± 0.012
- Mean OD at 530 nm ([3]; EGM-2 + growth factors, 5 μg/ml, vehicle 0.299 ± 0.011): 0.271 ± 0.022
- Mean OD at 530 nm ([3]; EGM-2 + growth factors, 15 μg/ml, vehicle 0.299 ± 0.011): 0.239 ± 0.019
- Mean OD at 530 nm ([3]; EGM-2 + growth factors, 30 μg/ml, vehicle 0.299 ± 0.011): 0.066 ± 0.003
- inhibition of RAP-1 [4]: appeared to inhibit RAP-1
